According to PMC6329768, “Dinitroimidazoles as bifunctional bioconjugation reagents for protein functionalization and peptide macrocyclization” (Nature Communications, 2019):

Legend:
[1] = Lys-Lys (or Dap-Dap) side-chain stapling of unprotected peptides with bis(1,4-dinitroimidazole) linker 5a (bis[(1,4-dinitroimidazol-2-yl)methyl] succinate, 1.2 mM), DIEA 4.0 mM; ANRORC ring-opening/ring-closing gives 1-alkyl-4-nitroimidazole linkages; details: the molecule shown is the open-chain precursor, DMSO (ca. 84%, with ca. 10% water and 6% MeCN from stock solutions), 1.0 mM, 37.0 °C, 2.0 h
[2] = Cys-Cys side-chain stapling of unprotected peptides with bis(1,4-dinitroimidazole) linker 5a (bis[(1,4-dinitroimidazol-2-yl)methyl] succinate, 1.0 eq) by cine-substitution at imidazole C5; sodium ascorbate 2.0 mM; details: the molecule shown is the open-chain precursor, 100 mM HEPES buffer pH 7.0, 1.0 mM, 25.0 °C
[3] = chemical stability of peptide conjugates under acidic, basic or oxidative conditions (HPLC); format: physicochemical; details: 10 h, conjugate 0.05 mM, three independent experiments; for stability of conjugate at pH 10.0: aqueous buffer pH 10.0, 37 °C
Protocol: The conversion values represent means ± SDs (standard deviations) of three independent experiments The stability of protein conjugates is a major concern for bioconjugation reagents. […] Next, we investigated the stability of the (4-nitroimidazole)-thiol linkage. Thiol-maleimide and thiol-arylation conjugates are reported to degrade under acidic, basic, or oxidative conditions[25],[30],[31]. We incubated conjugate 1c' in aqueous buffer at pH 2.0, pH 10.0, or in the presence of 10 mM H2O2 for 10 h at 37 °C.
Next, we explored the application of 1,4-DNIms in Lys bioconjugation of peptides. […] HRMS analysis and NMR analysis determined that product 1d is a ε-(4-nitroimidazole)-Lys derivative (Fig. 6a, Supplementary Figs. 28–32). Next, we explored the chemoselectivity of compound 1a in DMSO via incubation with nucleophilic amino acids, including Tyr, Ser, Trp, His, Asp, and Arg. […] To sum up, 1,4-DNIms react specifically with cysteine thiols under neutral aqueous conditions, and modify lysine ε-amines through a distinct mechanism with high selectivity in organic solvents in the absence of thiols by generating stable conjugates.
Supplementary Figure 15. Stability of 4-nitroimidazole-ACA adduct 1c’ (0.05 mM) in buffers at pH 2.0, pH 10.0, or in 10 mM H2O2 at 37 °C for 10 h before subjected to HPLC analysis. Gradient used:isocratic 2% CH3CN for 5 min, then 2% to 90% CH3CN in 25 min, then isocratic 90% CH3CN for 5 min, then 90% to 2% CH3CN in 5 min. Monitor wavelength: 365 nm.
Supplementary Figure 16. Stability of NEM-2a’ conjugate (0.05 mM) in buffers at pH 2.0 and 10.0. NEM-2a’ conjugate was incubated at pH 2.0 and pH 10.0 at 37 °C for 10 h before subjected to HPLC analysis. Gradient used:isocratic 2% CH3CN for 5 min, then 2% to 90% CH3CN in 25 min, then isocratic 90% CH3CN for 5 min, then 90% to 2% CH3CN in 5 min. Monitor wavelength: 254 nm. […]

[4] = hydrolytic stability of reagents in PBS buffer pH 7.4 (HPLC); format: physicochemical; details: 100 mM PBS buffer, pH 7.4, 37 °C, HPLC analysis
Protocol: Stability of N-phenyl maleimide in 100 mM PBS buffer,
pH 7.4 at 37 °C for indicated time before subjected to HPLC analysis.
at 37 °C for indicated time before subjected to HPLC analysis.

[5] = solubility in aqueous solutions; format: physicochemical
From the text: Lysines are rich in natural proteins and usually solvent-exposed on protein surface, therefore representing a major competition.

With `CC(=O)N[C@@H](C)C(=O)N[C@@H](CCCCn1cc([N+](=O)[O-])nc1COC(=O)CCC(=O)OCc1nc([N+](=O)[O-])cn1[N+](=O)[O-])C(=O)N[C@@H](Cc1ccccc1)C(=O)N[C@@H](CC(N)=O)C(=O)N[C@@H](CC(C)C)C(=O)N[C@@H](Cc1c[nH]c2ccccc12)C(=O)N[C@@H](CCCCN)C(=O)N[C@@H](C)C(=O)O` [Ac-Ala-Lys-Phe-Asn-Leu-Trp-Lys-Ala-OH] as the compound, how does the ring closure, conversion by HPLC ([1]; 36-membered ring) read?
The ring closure, conversion by HPLC was 90%.

Which ring closure, conversion by HPLC ([2]; 25-membered ring, 0.167 h) does the source give for `CC(=O)N[C@@H](C)C(=O)N[C@@H](CSc1[nH]c(COC(=O)CCC(=O)OCc2nc([N+](=O)[O-])cn2[N+](=O)[O-])nc1[N+](=O)[O-])C(=O)NCC(=O)N[C@@H](CS)C(=O)N[C@@H](C)C(=O)O` [Ac-Ala-Cys-Gly-Cys-Ala-OH] here?
The ring closure, conversion by HPLC was 95%.

For `CC(=O)N[C@@H](C)C(=O)N[C@@H](Cn1cc([N+](=O)[O-])nc1COC(=O)CCC(=O)OCc1nc([N+](=O)[O-])cn1[N+](=O)[O-])C(=O)N[C@H](C(=O)N[C@H](C(=O)N[C@@H](Cc1ccccc1)C(=O)N[C@@H](CC(N)=O)C(=O)N[C@@H](CC(C)C)C(=O)N[C@@H](Cc1c[nH]c2ccccc12)C(=O)N[C@@H](CN)C(=O)N[C@@H](C)C(=O)O)[C@@H](C)O)[C@@H](C)O` [Ac-Ala-Dap-Thr-Thr-Phe-Asn-Leu-Trp-Dap-Ala-OH], which ring closure, conversion by HPLC ([1]; 36-membered ring) is on record?
Its ring closure, conversion by HPLC is 95%.

For “Ac-Ala-Lys-Ser-Gln-Val-Thr-Phe-Asn-Leu-Trp-Arg-Met-Gln-Lys-Ala-OH”, which ring closure, conversion by HPLC ([1]; 57-membered ring) is on record?
Its ring closure, conversion by HPLC is 92%.

For `CCN1C(=O)CC(SC[C@H](NC(=O)[C@H](C)NC(C)=O)C(=O)N[C@@H](C)C(=O)O)C1=O` (stereo partly shown) [N-ethyl maleimide conjugate of 2a′], which “stability of conjugate at pH 10.0” value [3] is on record?
Its value is “complete hydrolysis”.

With `CC(=O)N[C@@H](C)C(=O)N[C@@H](CCCCn1cc([N+](=O)[O-])nc1COC(=O)CCC(=O)OCc1nc([N+](=O)[O-])cn1[N+](=O)[O-])C(=O)N[C@H](C(=O)N[C@@H](Cc1ccccc1)C(=O)N[C@@H](CC(N)=O)C(=O)N[C@@H](CCCCN)C(=O)N[C@@H](C)C(=O)O)[C@@H](C)O` [Ac-Ala-Lys-Thr-Phe-Asn-Lys-Ala-OH] as the compound, how does the ring closure, conversion by HPLC ([1]; 33-membered ring) read?
The ring closure, conversion by HPLC was 95%.

With `CC(=O)N[C@@H](C)C(=O)N[C@@H](CSc1[nH]c(COC(=O)CCC(=O)OCc2nc([N+](=O)[O-])cn2[N+](=O)[O-])nc1[N+](=O)[O-])C(=O)N[C@@H](C)C(=O)N[C@@H](CCCNC(=N)N)C(=O)NCC(=O)N[C@@H](Cc1c[nH]c2ccccc12)C(=O)NCC(=O)N[C@@H](CS)C(=O)N[C@@H](C)C(=O)O` [Ac-Ala-Cys-Ala-Arg-Gly-Trp-Gly-Cys-Ala-OH] as the compound, how does the ring closure, conversion by HPLC ([2]; 37-membered ring, 0.167 h) read?
Its ring closure, conversion by HPLC is 95%.

Which ring closure, conversion by HPLC ([2]; 31-membered ring, 0.167 h) does the source give for `CC(=O)N[C@@H](C)C(=O)N[C@@H](CSc1[nH]c(COC(=O)CCC(=O)OCc2nc([N+](=O)[O-])cn2[N+](=O)[O-])nc1[N+](=O)[O-])C(=O)N[C@@H](C)C(=O)N[C@H](C(=O)N[C@@H](CC(N)=O)C(=O)N[C@@H](CS)C(=O)N[C@@H](C)C(=O)O)[C@@H](C)O` [Ac-Ala-Cys-Ala-Thr-Asn-Cys-Ala-OH] here?
The ring closure, conversion by HPLC was 95%.

Which “stability of conjugate under oxidative conditions” value ([3]; 10 mM H2O2 in Na2CO3 buffer at pH 8.0, 37 °C) does the source give for `COC(=O)[C@H](C)NC(=O)[C@H](CSc1[nH]cnc1[N+](=O)[O-])NC(=O)[C@H](C)NC(C)=O` [1c] here?
The value was “did not decompose”.

And the “stability of conjugate at pH 2.0” value ([3]; aqueous buffer pH 2.0, 37 °C)?
Its value is “did not decompose”.

And the “stability of conjugate at pH 10.0” value [3]?
The value was “did not decompose”.

Which “time to complete hydrolysis (yielding the maleamic acid)” value [4] does the source give for `O=C1C=CC(=O)N1c1ccccc1` [N-phenyl maleimide] here?
The value was ≤ 2 h.

For `N=C(N)NCCC[C@H](NC(=O)[C@H](CSc1[nH]c(COC(=O)CCC(=O)OCc2nc([N+](=O)[O-])cn2[N+](=O)[O-])nc1[N+](=O)[O-])NC(=O)[C@@H](N)Cc1ccccc1)C(=O)NCC(=O)N[C@@H](CC(=O)O)C(=O)N[C@@H](CS)C(=O)O` [H-Phe-Cys-Arg-Gly-Asp-Cys-OH], which ring closure, conversion by HPLC ([2]; 31-membered ring, 0.167 h) is on record?
The ring closure, conversion by HPLC was 90%.

With `O=S(=O)(c1c(F)c(F)c(F)c(F)c1F)c1c(F)c(F)c(F)c(F)c1F` [pf1, 6,6′-sulfonylbis(1,2,3,4,5-pentafluorobenzene)] as the compound, how does the “solubility in aqueous solutions” value [5] read?
The value was < 0.05 mM.

Which ring closure, conversion by HPLC ([2]; 34-membered ring, 0.5 min) does the source give for `CC(=O)N[C@@H](C)C(=O)N[C@@H](CSc1[nH]c(COC(=O)CCC(=O)OCc2nc([N+](=O)[O-])cn2[N+](=O)[O-])nc1[N+](=O)[O-])C(=O)NCC(=O)N[C@@H](Cc1ccccc1)C(=O)N[C@@H](CCCCN)C(=O)N[C@@H](C)C(=O)N[C@@H](CS)C(=O)NCC(=O)N[C@H](C(=O)N[C@@H](CCCCN)C(=O)O)C(C)C` [Ac-Ala-Cys-Gly-Phe-Lys-Ala-Cys-Gly-Val-Lys-OH] here?
The ring closure, conversion by HPLC was 100%.

With `CC(=O)N[C@@H](CC(C)C)C(=O)N[C@H](C(=O)N[C@@H](Cc1ccccc1)C(=O)N[C@@H](CCCCn1cc([N+](=O)[O-])nc1COC(=O)CCC(=O)OCc1nc([N+](=O)[O-])cn1[N+](=O)[O-])C(=O)N[C@@H](Cc1c[nH]cn1)C(=O)N[C@@H](Cc1ccc(O)cc1)C(=O)N[C@@H](Cc1c[nH]c2ccccc12)C(=O)N[C@@H](C)C(=O)N[C@@H](CCC(N)=O)C(=O)N[C@@H](CC(C)C)C(=O)N[C@@H](CCCCN)C(=O)N[C@@H](CO)C(=O)O)[C@@H](C)O` [Ac-Leu-Thr-Phe-Lys-His-Tyr-Trp-Ala-Gln-Leu-Lys-Ser-OH] as the compound, how does the ring closure, conversion by HPLC ([1]; 42-membered ring) read?
The ring closure, conversion by HPLC was 90%.
